One may read the MIC as the least concentration at which growth counts as inhibited.

Values after ≈ are worked out from the molar mass of the structure shown. Read-outs that look alike come from different tables or passages of the source.

Results on four compounds are retold here after patent US6372297B1, “Wood preservative oxathiazines” (Uniroyal Chemical Company, Inc., priority 1993, dated 2002).

In assay [1] the test system is molds and blue-stain fungi. As to the kind of experiment: In vitro activity against molds and blue-stain fungi, poison plate assay (MIC). The class given is cell-based. To be noted: malt extract agar, complete inhibition. Here is the method: The effect of the representative compounds on the growth of certain molds and blue-strain fungi were determined using a poison plate assay according to the following procedure: The solutions of the representative compounds prepared above were further diluted with sterile water to desired concentrations and poured into Petri dishes. Malt extract agar medium was then added aseptically to the Petri dishes and to Petri dishes containing no compound (controls). The Petri dishes were then shaken to provide a uniform distribution of the agar medium. Each Petri dish containing compound and each control Petri dish, was then inoculated with a fungus and incubated for a period of time sufficient to permit complete growth of the fungus in the respective control Petri dish. The Petri dishes containing compound were then examined to determine the amount of inhibition of fungi for each concentration of compound tested.

For assay [2], the system named is blue-stain fungi and molds. As to the kind of experiment: Activity against blue-stain fungi and molds in a stick test (threshold concentrations). The conditions noted are these: beech sticks, 22° C., 90% relative humidity; for Threshold concentration (ppm), A. niger, score 0 / Threshold concentration (ppm), Aureobasidium, score 0 / Threshold concentration (ppm), Sclerophoma, score 0 / Threshold concentration (ppm), Trichoderma, score 0: minimum concentration to obtain score 0; for Threshold concentration (ppm), A. niger, score 1-2 / Threshold concentration (ppm), Aureobasidium, score 1-2 / Threshold concentration (ppm), Sclerophoma, score 1-2 / Threshold concentration (ppm), Trichoderma, score 1-2: minimum concentration to obtain score 1-2. Here is the method:
Representative compounds of this invention were dissolved in 50% ethanol. Each compound was then diluted serially using 50% ethanol. […] After three (3) hours, the solutions containing the test compounds were poured off and the treated sticks were allowed to dry in a sterile laminar air flow. Each treated stick was then placed in a Petri dish which had been previously seeded with inoculum. Two drops of a test fungal or spore suspension were pipetted onto the upper surface of each treated stick. The Petri dishes containing the treated sticks were incubated at 22° C. and 90% relative humidity. The treated sticks were evaluated after there was sufficient growth of fungus on control sticks (i.e., untreated sticks) incubated in the same manner. The following score system was used: 0: Stick free of fungal/mold growth 1: Traces of fungal growth on the stick 2: Slight growth (5 to 25% of the surface covered with fungal growth) 3: Moderate growth (25 to 50% covered with fungal growth) 4. Vigorous to maximum fungal growth (more than 50% growth) […]

In the case of `[O-][S+]1CCON=C1c1nc2ccccc2s1` (centres unmarked) [Compound 85, 5,6-dihydro-3-(2-benzothiazolyl)-1,4,2-oxathiazine-4-oxide], the MIC in assay [1] (A. amstelodami, read-out: MIC (ppm) against A. amstelodami) was determined as 5 mg/L (≈ 19.8 µM); in assay [1] (Aspergillus niger, A. niger, read-out: MIC (ppm) against A. niger), 5 mg/L (≈ 19.8 µM); in assay [1] (Aspergillus versicolor, A. versicolor, read-out: MIC (ppm) against A. versicolor), 2.5 mg/L (≈ 9.91 µM); in assay [1] (Aureobasidium pullulans, A. pullulans, read-out: MIC (ppm) against A. pullulans), 25 mg/L (≈ 99.1 µM); in assay [1] (C. pilifera, read-out: MIC (ppm) against C. pilifera) it was 2.5 mg/L (≈ 9.91 µM); in assay [1] (Cladosporium cladosporioides, C. cladosporioides, read-out: MIC (ppm) against C. cladosporioides), 25 mg/L (≈ 99.1 µM). Also, the MIC in assay [1] (Fusarium solani, F. solani, read-out: MIC (ppm) against F. solani) was 25 mg/L (≈ 99.1 µM); in assay [1] (Geotrichum candidum, G. candidum, read-out: MIC (ppm) against G. candidum), 10 mg/L (≈ 39.6 µM); in assay [1] (P. purpurogenum, read-out: MIC (ppm) against P. purpurogenum), 10 mg/L (≈ 39.6 µM); in assay [1] (P. violacea, read-out: MIC (ppm) against P. violacea) it was 10 mg/L (≈ 39.6 µM); in assay [1] (Paecilomyces variotii, P. variotii, read-out: MIC (ppm) against P. variotii) it was 25 mg/L (≈ 99.1 µM); in assay [1] (S. atra, read-out: MIC (ppm) against S. atra) it was 2.5 mg/L (≈ 9.91 µM). In addition, the MIC in assay [1] (S. entoxylina, read-out: MIC (ppm) against S. entoxylina) is 5 mg/L (≈ 19.8 µM); in assay [1] (Trichoderma viride, T. viride, read-out: MIC (ppm) against T. viride), 25 mg/L (≈ 99.1 µM); in assay [1] (U. atrum, read-out: MIC (ppm) against U. atrum) it was 10 mg/L (≈ 39.6 µM). In addition, in assay [2], the “Threshold concentration (ppm), A. niger, score 0” value is 1000 ppm. Besides, in assay [2], the “Threshold concentration (ppm), A. niger, score 1-2” value was under 250 ppm. The “Threshold concentration (ppm), Aureobasidium, score 0” value in assay [2] is recorded as 1000 ppm. For the same compound, the “Threshold concentration (ppm), Aureobasidium, score 1-2” value in assay [2] was 250-500 ppm. Besides, the “Threshold concentration (ppm), Sclerophoma, score 0” value in assay [2] is on record as 100 ppm. Further, in assay [2], the “Threshold concentration (ppm), Sclerophoma, score 1-2” value is listed as under 50 ppm. In addition, in assay [2], the “Threshold concentration (ppm), Trichoderma, score 0” value turned out to be 2500 ppm. In addition, the “Threshold concentration (ppm), Trichoderma, score 1-2” value in assay [2] is on record as 1000-2500 ppm.

Take `N#Cc1ccc(C2=NOCC[S+]2[O-])s1` (centres unmarked) [Compound 57]: in assay [1] (A. amstelodami), the “MIC (ppm) against A. amstelodami” value is 10 ppm. Moreover, the “MIC (ppm) against A. niger” value in assay [1] (A. niger) turned out to be 10 ppm. Besides, the “MIC (ppm) against A. pullulans” value in assay [1] (A. pullulans) is recorded as over 25 ppm. Also, the “MIC (ppm) against A. versicolor” value in assay [1] (A. versicolor) amounted to 10 ppm. Besides, the “MIC (ppm) against C. cladosporioides” value in assay [1] (C. cladosporioides) was determined as 25 ppm. Moreover, in assay [1] (C. pilifera), the “MIC (ppm) against C. pilifera” value was found to be 10 ppm. The “MIC (ppm) against F. solani” value in assay [1] (F. solani) is recorded as 25 ppm. Also, the “MIC (ppm) against G. candidum” value in assay [1] (G. candidum) is on record as 25 ppm. In addition, the “MIC (ppm) against P. purpurogenum” value in assay [1] (P. purpurogenum) is on record as 10 ppm. The “MIC (ppm) against P. variotii” value in assay [1] (P. variotii) is reported as 25 ppm. The “MIC (ppm) against P. violacea” value in assay [1] (P. violacea) amounted to 25 ppm. Besides, in assay [1] (S. atra), the “MIC (ppm) against S. atra” value worked out at 10 ppm. Moreover, the “MIC (ppm) against S. entoxylina” value in assay [1] (S. entoxylina) is given as 10 ppm. The “MIC (ppm) against T. viride” value in assay [1] (T. viride) is listed as over 25 ppm. Moreover, the “MIC (ppm) against U. atrum” value in assay [1] (U. atrum) is on record as 25 ppm. Besides, in assay [2], the “Threshold concentration (ppm), A. niger, score 0” value came out at 500 ppm; the “Threshold concentration (ppm), A. niger, score 1-2” value was under 250 ppm; the “Threshold concentration (ppm), Aureobasidium, score 0” value was over 1000 ppm; the “Threshold concentration (ppm), Aureobasidium, score 1-2” value was 250-500 ppm. Besides, in assay [2], the “Threshold concentration (ppm), Sclerophoma, score 0” value was 100 ppm; the “Threshold concentration (ppm), Sclerophoma, score 1-2” value is reported as under 50 ppm; the “Threshold concentration (ppm), Trichoderma, score 0” value came out at 1000 ppm; the “Threshold concentration (ppm), Trichoderma, score 1-2” value is 500-1000 ppm.

As for `CC1CS(=O)(=O)C(c2cccs2)=NO1` (centres unmarked) [Compound 51, 5,6-dihydro-6-methyl-3-(2-thienyl)-1,4,2-oxathiazine-4,4, dioxide], in assay [2], the “Threshold concentration (ppm), A. niger, score 0” value was 500 ppm; the “Threshold concentration (ppm), A. niger, score 1-2” value is given as 250-500 ppm; the “Threshold concentration (ppm), Aureobasidium, score 0” value is over 1000 ppm; the “Threshold concentration (ppm), Aureobasidium, score 1-2” value is recorded as 250-500 ppm. Also, in assay [2], the “Threshold concentration (ppm), Sclerophoma, score 0” value is 100 ppm; the “Threshold concentration (ppm), Sclerophoma, score 1-2” value was 50-100 ppm; the “Threshold concentration (ppm), Trichoderma, score 0” value is 1000 ppm; the “Threshold concentration (ppm), Trichoderma, score 1-2” value was 500-1000 ppm.

As to `[O-][S+]1CCON=C1c1cc2ccccc2s1` (centres unmarked) [Compound 87], in assay [1] (A. amstelodami), the “MIC (ppm) against A. amstelodami” value is recorded as 5 ppm. For the same compound, the “MIC (ppm) against A. niger” value in assay [1] (A. niger) was determined as 2.5 ppm. Moreover, in assay [1] (A. pullulans), the “MIC (ppm) against A. pullulans” value is 10 ppm. Further, the “MIC (ppm) against A. versicolor” value in assay [1] (A. versicolor) is listed as 2.5 ppm. Moreover, the “MIC (ppm) against C. cladosporioides” value in assay [1] (C. cladosporioides) was found to be 25 ppm. The “MIC (ppm) against C. pilifera” value in assay [1] (C. pilifera) is given as 2.5 ppm. Also, the “MIC (ppm) against F. solani” value in assay [1] (F. solani) is given as 10 ppm. Moreover, the “MIC (ppm) against G. candidum” value in assay [1] (G. candidum) is given as 25 ppm. In addition, the “MIC (ppm) against P. purpurogenum” value in assay [1] (P. purpurogenum) turned out to be 2.5 ppm. In assay [1] (P. variotii), the “MIC (ppm) against P. variotii” value was found to be 10 ppm. For the same compound, the “MIC (ppm) against P. violacea” value in assay [1] (P. violacea) is 10 ppm. The “MIC (ppm) against S. atra” value in assay [1] (S. atra) came out at 2.5 ppm. Also, the “MIC (ppm) against S. entoxylina” value in assay [1] (S. entoxylina) is listed as 5 ppm. Besides, the “MIC (ppm) against T. viride” value in assay [1] (T. viride) is 10 ppm. Further, the “MIC (ppm) against U. atrum” value in assay [1] (U. atrum) worked out at 10 ppm. Further, in assay [2], the “Threshold concentration (ppm), A. niger, score 0” value is 1000 ppm; the “Threshold concentration (ppm), A. niger, score 1-2” value is on record as 250-500 ppm; the “Threshold concentration (ppm), Aureobasidium, score 0” value stood at 1000 ppm; the “Threshold concentration (ppm), Aureobasidium, score 1-2” value was 100-250 ppm. Moreover, in assay [2], the “Threshold concentration (ppm), Sclerophoma, score 0” value amounted to 100 ppm; the “Threshold concentration (ppm), Sclerophoma, score 1-2” value is 50-100 ppm; the “Threshold concentration (ppm), Trichoderma, score 0” value is on record as 5000 ppm; the “Threshold concentration (ppm), Trichoderma, score 1-2” value is on record as 1000-2500 ppm.
